# Assays:
# Bax protein = assay: Bax activation: retention of GFP-Bax fluorescence after digitonin permeabilization, flow cytometry; assay type: cell-based, human; conditions: clone 10; coupled test FL1 (GFP) / FL3 (DNA); FIG. 11
# Protocol: (§1) FIG. 11A-E represents the coupled measurement of Bax activation and the cell cycle. The clone 10 cells stably expressing the GFP-Bax fusion protein are treated with various drugs acting as pro-apoptotic agents and/or cytostatic agents. The measurement of Bax activation is carried out as described previously by evaluation of the retention of fluorescence after permeabilization with digitonin. In the permeabilization buffer, propidium iodide (0.4-0.8 mg/ml) was added and the cells were incubated for 30 minutes at 4° C. The distribution of the cells in the various phases of the cell cycle is read on the basis of their intensity of fluorescence in the red (PI).
# The model implemented uses a clone designated “clone 10”.
# The test is then based on the observation, under the fluorescence microscope or by flow cytometry, of the cells in which Bax is not activated and thus is distributed uniformly in the cytosol and of the cells in which Bax has been activated following an induction of apoptosis. In the latter case, the fluorescent signal is aggregated around the mitochondria and the Bax protein is thus considered as “bound”.
# The cells are then resuspended in an intracellular saline solution in the presence of 50 μM of digitonin and then analyzed by flow cytometry and the fluorescence of the GFP is measured in channel FL1.
# clone 10 cells = assay: Cell cycle distribution by propidium iodide, coupled with the Bax activation test; assay type: cell-based, human; conditions: propidium iodide 0.4-0.8 mg/ml, 30 minutes at 4° C., FIG. 11
# Protocol: as §1, with “(PI). […] Moreover, it makes it possible to evaluate if Bax activation takes place in a preferential phase of the cell cycle.” for “(PI).”
# The measurement of the cell cycle can be carried out in a traditional way by adding to the permeabilized cell suspension a sufficient concentration of propidium iodide (0.4-0.8 mg/ml). The cells are incubated for 30 minutes to allow time for PI to become intercalated in the genomic DNA, and then analyzed using flow cytometry by simultaneously measuring “green” fluorescence (FL1=the recombinant biosensor signal based on GFP or another fluorescent protein emitting in the green range) and “red” fluorescence (FL3=the intensity of PI corresponding to the chromatin content of each cell, which enables the cell cycle to be read).
# caspase 3 [1] = assay: Caspase 3 activation in a xenografted clone 23 tumor in nude mice, confocal microscopy; assay type: in vivo; conditions: mouse with xenografted clone 23 tumor; 40 mg/kg/day for 4 days; FIG. 12c
# Text: FIG. 12 represents the xenograft of lines expressing a fluorescent biosensor. a) Confocal microscopy image (10×) of a section of a solid tumor generated by a subcutaneous xenograft of clone 10 cells (stably expressing GFP-Bax) in nude mice. Marking of nuclei (Hoechst) and cells with activated Bax (GFP-Bax). On the right, the detail of a cell with GFP-Bax relocalized to the mitochondria (GFP-Bax) and corresponding nuclear marking (Hoechst). b) Confocal microscopy image (10×) of a section of a solid tumor generated by a subcutaneous xenograft of clone 23 cells (stably expressing the protein copGFP-DEVD-cb5TMD-RR) in nude mice. Marking of nuclei (Hoechst) and distribution of the biosensor (caspase 3 probe).
# These lines (designated clone 10 and clone 23, respectively), injected subcutaneously in “nude” mice form solid fluorescent tumors after a few days.
# caspase 2 = assay: Distribution of nuclear-anchored caspase 2 probe in HeLa cells; assay type: cell-based, human; conditions: transiently transfected, 3 hours, untreated cells show nuclear distribution, FIG. 10e
# Text: Fusion proteins GFP-cb5TMRR and GFP-SNAP(80-136) were constructed which carry, in the linker connecting the fluorescent protein and the anchoring segment, the caspase 8 consensus sensing site (IETD) which is principal “initiating” pro-apoptotic caspase. In the same manner, a fusion protein GFP-H2B was constructed which contains, in the sequence linker, the caspase 2 consensus sensing sequence (VDVAD), which is a protease with nuclear localization. The sensing components thus used have as sequences SEQ ID No. 6 and 14 (for caspase 8), and SEQ ID No. 12 (for caspase 2). These proteins are cleavable and the quantification of the proteolytic activity can be carried out via cytometry as shown for caspase 3 (FIG. 10).
# caspase 3 [2] = assay: Cleavage and redistribution of caspase 3 probes, confocal and fluorescence microscopy; assay type: cell-based, human
# Protocol: The quantification of cleavage and of the diffusion of the fluorescent signal in the cytosol is carried out by measuring the increase in the respectively green and red fluorescent signal in a region of the nucleus.
# The quantification of the cleavage and of the diffusion of the fluorescent signal respectively from the nucleus to the cytosol for the protein H2B-DEVD-GFP and from the cytosol to the nucleus for the protein HcRed-DEVT-cb5 is carried out by measuring the increase in the fluorescent signal, respectively green in a cytosolic region of the cell and red in a region of the nucleus. e) Evaluation by flow cytometry of the functionality of the probe by quantification of the percentage of retention of fluorescence after permeabilization in a population of HeLa cells transfected transiently with the protein H2B-DEVD-GFP and its non-cleavable control.
# The cells are cultivated on glass slides and transfected with the vector described previously; they are then mounted in a saline medium in an incubation chamber and observed under the fluorescence microscope. Before or during the observation, they are treated with the pro-apoptotic agent.
Compound,Bax activation in relation to the phase of the cell cycle (Bax protein),"Effect on the cell cycle (distribution in phases G1, S, G2/M) (clone 10 cells)",also measured
CC[C@@]1(O)C(=O)OCc2c1cc1n(c2=O)Cc2cc3ccccc3nc2-1 [camptothecin],Bax activation preferentially in phase Gl,blockage in phase S,
CN[C@H]1CCc2cc(OC)c(OC)c(OC)c2-c2ccc(OC)c(=O)cc21 [colcemid],,accumulation in phase G2,
COc1cccc2c1C(=O)c1c(O)c3c(c(O)c1C2=O)C[C@@](O)(C(C)=O)C[C@@H]3O[C@H]1C[C@H](N)[C@H](O)[C@H](C)O1 [daunorubicin],Bax activation in phase S,accumulation in phase G2,
COc1cc([C@@H]2c3cc4c(cc3[C@@H](O[C@@H]3O[C@@H]5CO[C@@H](C)O[C@H]5[C@H](O)[C@H]3O)[C@H]3COC(=O)[C@H]23)OCO4)cc(OC)c1O [etoposide],,,Caspase 3 activation in tumor cells (cytosolic distribution of fluorescence) (caspase 3 [1]): appearance of cells having activated caspase 3
CN[C@@H]1C[C@H]2O[C@@](C)([C@@H]1OC)n1c3ccccc3c3c4c(c5c6ccccc6n2c5c31)C(=O)NC4 [staurosporine],induction of Bax activation in any phase of the cycle,no effect on the cycle,"Distribution of fluorescent protein GFP-IETD-H2B (caspase 2): cytosolic distribution; Cleavage of probes GFP-DEVD-ANT and HcRed-DEVD-Cb5RR (caspase 3 [2]; human HeLa cells, transiently co-transfected, confocal microscopy, FIG. 8e-f): Release of the fluorescent protein in the cytosol following its cleavage; Distribution of fluorescent protein H2B-DEVD-GFP (caspase 3 [2]; human HeLa cells, transiently transfected, untreated cells show nuclear distribution, FIG. 9c): cytosolic distribution; Cleavage of probe GFP-DEVD-SNAP(80-136) (caspase 3 [2]; human SH-SY5Y neuroblastoma cells, transiently transfected, confocal microscopy, FIG. 7c): Release of the fluorescent protein in the cytosol following its cleavage"

# Reference: patent US20120040389A1 (Institut National de la Sante et de la Recherche Medicale …, priority 2003, published 2012)
